Results from ChEMBL document CHEMBL1932941, “3-mercapto-1,2,4-triazoles and N-acylated thiosemicarbazides as metallo-β-lactamase inhibitors” (Bioorg Med Chem Lett, 2012).

What was measured:
[1] = target: Beta-lactamase (Pseudomonas aeruginosa) (UniProt Q79MP6); assay: Inhibition of Pseudomonas aeruginosa beta-lactamase IMP-1 expressed in Escherichia coli BL21(DE3) at 10 uM using CENTA as chromogenic substrate
[2] = target: Beta-lactamase (Pseudomonas aeruginosa) (UniProt Q79MP6); assay: Competitive inhibition of Pseudomonas aeruginosa beta-lactamase IMP-1 assessed as formation of 4-nitrothiophenolate at pH 7 using CENTA as chromogenic substrate
[3] = target: Beta-lactamase (Pseudomonas aeruginosa) (UniProt Q79MP6); assay: Uncompetitive inhibition of Pseudomonas aeruginosa beta-lactamase IMP-1 assessed as formation of 4-nitrothiophenolate at pH 7 using CENTA as chromogenic substrate
[4] = Solubility of the compound; format: physicochemical
[5] = target: Beta-lactamase (Pseudomonas aeruginosa) (UniProt Q79MP6); assay: Inhibition of Pseudomonas aeruginosa beta-lactamase IMP-1 expressed in Escherichia coli BL21(DE3) at 100 uM using CENTA as chromogenic substrate
[6] = target: Beta-lactamase (Pseudomonas aeruginosa) (UniProt Q79MP6); assay: Inhibition of Pseudomonas aeruginosa beta-lactamase IMP-1 expressed in Escherichia coli BL21(DE3) at 1000 uM using CENTA as chromogenic substrate

Sequence of Beta-lactamase (Pseudomonas aeruginosa) (Q79MP6 19-246 limits assumed): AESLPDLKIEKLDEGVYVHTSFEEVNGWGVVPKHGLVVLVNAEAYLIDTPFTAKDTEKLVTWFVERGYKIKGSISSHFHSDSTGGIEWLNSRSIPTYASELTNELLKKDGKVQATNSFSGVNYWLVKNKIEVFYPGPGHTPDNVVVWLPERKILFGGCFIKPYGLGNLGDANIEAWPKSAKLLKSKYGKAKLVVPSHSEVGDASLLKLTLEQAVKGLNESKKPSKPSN

Structure (SMILES)	inhibition [1] [%]	Kiuc [3] [µM]	other results
NC(=S)NNC(=O)c1ccc(C(=O)c2ccc([N+](=O)[O-])cc2)cc1	45	20	Kic [2]: 11 µM
CNC(=S)NNC(=O)C(C)(C)C	0		
Cc1ccc(C(=O)c2ccc(C(=O)NNC(N)=S)cc2)cc1	38	20	Kic [2]: 41 µM
CCCCCCc1nnc(S)[nH]1			solubility [4]: Insoluble
O=C(O)CCCc1nnc(S)[nH]1	0		inhibition [5]: 5%
NC(=S)NNC(=O)CCC(=O)O	13		
NC(=S)NNC(=O)c1ccccc1C(=O)O	0		
Cc1nnc(S)[nH]1			inhibition [6]: 33%
CCCCCCSc1nnc(C(C)(C)C)[nH]1			solubility [4]: Insoluble
CC(C)(C)c1nnc(S)[nH]1			inhibition [6]: 32%
Sc1n[nH]c(-c2ccccc2)n1			inhibition [6]: 0%
Cn1c(S)nnc1C(F)(F)F			inhibition [6]: 51%
NC(=S)NNC(=O)c1ccc(C(=O)c2ccccc2Cl)cc1	51	13	Kic [2]: 14 µM
CCc1nnc(S)[nH]1			inhibition [6]: 32%
O=C(O)CCc1nnc(S)[nH]1	10		inhibition [5]: 10%
O=C(c1ccccc1)c1ccc(-c2nnc(S)[nH]2)cc1	10	56	inhibition [5]: 44%; Kic [2]: 75 µM
NC(=S)NNC(=O)c1cccc([N+](=O)[O-])c1	30		
NC(=S)NNC(=O)c1ccc(C(=O)c2cccc([N+](=O)[O-])c2)cc1	45	15	Kic [2]: 16 µM
NC(=S)NNC(=O)CCCC(=O)O	8		
O=[N+]([O-])c1cccc(-c2nnc(S)[nH]2)c1			solubility [4]: Insoluble
FC(F)(F)c1nnc(S)[nH]1			inhibition [6]: 45%
CSc1nnc(C(C)(C)C)[nH]1			inhibition [6]: 10%
Cc1nnc[nH]1			inhibition [6]: 0%

Now from value to compound, other results behind:

inhibition [1] [%]	Kiuc [3] [µM]	Structure (SMILES)	other results
26	37	NC(=S)NNC(=O)c1ccc(Cc2ccccc2)cc1	Kic [2]: 18 µM
0		CC(C)(C)C(=O)NNC(N)=S	
22	30	NC(S)=NNC(=O)c1ccccc1	Kic [2]: 19 µM
34	26	NC(=S)NNC(=O)c1ccc(C(=O)c2ccccc2)cc1	Kic [2]: 13 µM
	> 2000	C[C@H](CS)C(=O)N1CCC[C@H]1C(=O)O	
0		O=C(O)c1ccccc1-c1nnc(S)[nH]1	inhibition [5]: 7%
